Measured values published in PubChem BioAssay AID330 (DTP/NCI, 2004).
“And” between values parts separate entries of the source, which are not always exact repeats. Identical values can stand only once. Inconclusive results and toxic doses are left out. Peptide text beside a SMILES is read from it.

System: P388 leukemia ip, CD2F1 mice, survival T/C
Assay: NCI In Vivo Anticancer Drug Screen. Data for tumor model P388 Leukemia (intraperitoneal) in CD2F1 (CDF1) mice
Details: endpoint: median survival time, higher = longer survival
Procedure, shortened: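 Mice carrying the transplanted tumor received test compound or vehicle. Survival was recorded in each group, and the value is the treated-group measurement divided by that of the vehicle-treated control group.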

[1] = dose: 50.0 mg/kg/injection, schedule: Q01DX009 (ip), vehicle: Klucel (hydroxypropylcellulose) (HPC)
[2] = dose: 50.0 mg/kg/injection, schedule: Q01DX009 (ip), vehicle: saline with Tween-80
[3] = dose: 4.5 mg/kg/injection, schedule: Q01DX009 (ip), vehicle: Klucel (hydroxypropylcellulose) (HPC)
[4] = dose: 9.0 mg/kg/injection, schedule: Q01DX009 (ip), vehicle: Klucel (hydroxypropylcellulose) (HPC)
[5] = dose: 18.0 mg/kg/injection, schedule: Q01DX009 (ip), vehicle: Klucel (hydroxypropylcellulose) (HPC)
[6] = dose: 50.0 mg/kg/injection, schedule: Q01DX005 (ip), vehicle: Klucel (hydroxypropylcellulose) (HPC)
[7] = dose: 100.0 mg/kg/injection, schedule: Q01DX005 (ip), vehicle: Klucel (hydroxypropylcellulose) (HPC)
[8] = dose: 25.0 mg/kg/injection, schedule: Q01DX005 (ip), vehicle: Klucel (hydroxypropylcellulose) (HPC)
[9] = dose: 100.0 mg/kg/injection, schedule: Q04DX003 (ip), vehicle: Klucel (hydroxypropylcellulose) (HPC)

## N#CC1(Nc2ccccc2)CCCC1
dose: 3.13 mg/kg/injection, schedule: Q01DX009 (ip), vehicle: Klucel (hydroxypropylcellulose) (HPC)
  T/C: 104 % of control
dose: 6.25 mg/kg/injection, schedule: Q01DX009 (ip), vehicle: Klucel (hydroxypropylcellulose) (HPC)
  T/C: 104 % of control and 92 % of control and 96 % of control
dose: 12.5 mg/kg/injection, schedule: Q01DX009 (ip), vehicle: Klucel (hydroxypropylcellulose) (HPC)
  T/C: 100 % of control and 90 % of control and 98 % of control
dose: 25.0 mg/kg/injection, schedule: Q01DX009 (ip), vehicle: Klucel (hydroxypropylcellulose) (HPC)
  T/C: 100 % of control and 96 % of control
[1]
  T/C: 104 % of control

## O=[N+]([O-])c1ccc(N2N=N[C@@H]3C4CCC(C4O)[C@@H]32)cc1 (stereo partly drawn)
[2]
  T/C: 88 % of control
dose: 100.0 mg/kg/injection, schedule: Q01DX009 (ip), vehicle: saline with Tween-80
  T/C: 97 % of control
dose: 200.0 mg/kg/injection, schedule: Q01DX009 (ip), vehicle: saline with Tween-80
  T/C: 89 % of control

## O=C(NC1=C(N2CC2)C(=O)C(NC(=O)OCCO)=C(N2CC2)C1=O)OCCO
dose: 0.18 mg/kg/injection, schedule: Q01DX009 (ip), vehicle: saline
  T/C: 174 % of control
dose: 0.39 mg/kg/injection, schedule: Q01DX009 (ip), vehicle: saline
  T/C: 170 % of control
dose: 0.75 mg/kg/injection, schedule: Q01DX009 (ip), vehicle: saline
  T/C: 218 % of control
dose: 1.5 mg/kg/injection, schedule: Q01DX009 (ip), vehicle: saline
  T/C: 169 % of control and 175 % of control
dose: 3.0 mg/kg/injection, schedule: Q01DX009 (ip), vehicle: saline
  T/C: 202 % of control and 211 % of control
dose: 6.0 mg/kg/injection, schedule: Q01DX009 (ip), vehicle: saline
  T/C: 239 % of control and 258 % of control

## COC1C(c2cc3ccccc3oc2=O)OC2OC(C)(C)OC21 (stereo not drawn)
dose: 5.0 mg/kg/injection, schedule: Q01DX001 (ip), vehicle: Klucel (hydroxypropylcellulose) (HPC)
  T/C: 97 % of control
dose: 10.0 mg/kg/injection, schedule: Q01DX001 (ip), vehicle: Klucel (hydroxypropylcellulose) (HPC)
  T/C: 101 % of control
dose: 20.0 mg/kg/injection, schedule: Q01DX001 (ip), vehicle: Klucel (hydroxypropylcellulose) (HPC)
  T/C: 100 % of control

## CN1C(=O)C23CCCCN2CC12CC1(C(=O)Nc4c1ccc1c4OC=CC(C)(C)O1)C(C)(C)C2C3 (stereo not drawn)
dose: 0.37 mg/kg/injection, schedule: Q01DX009 (ip), vehicle: Klucel (hydroxypropylcellulose) (HPC)
  T/C: 100 % of control
dose: 0.75 mg/kg/injection, schedule: Q01DX009 (ip), vehicle: Klucel (hydroxypropylcellulose) (HPC)
  T/C: 102 % of control
dose: 1.5 mg/kg/injection, schedule: Q01DX009 (ip), vehicle: Klucel (hydroxypropylcellulose) (HPC)
  T/C: 100 % of control
dose: 3.0 mg/kg/injection, schedule: Q01DX009 (ip), vehicle: Klucel (hydroxypropylcellulose) (HPC)
  T/C: 100 % of control
[3]
  T/C: 96 % of control
[4]
  T/C: 98 % of control
[5]
  T/C: 100 % of control

## Cn1cnc2cc(N3CCOCC3)c(N)cc2c1=O
dose: 100.0 mg/kg/injection, schedule: Q04DX002 (ip), vehicle: Klucel (hydroxypropylcellulose) (HPC)
  T/C: 106 % of control
dose: 200.0 mg/kg/injection, schedule: Q04DX002 (ip), vehicle: Klucel (hydroxypropylcellulose) (HPC)
  T/C: 102 % of control
dose: 400.0 mg/kg/injection, schedule: Q04DX002 (ip), vehicle: Klucel (hydroxypropylcellulose) (HPC)
  T/C: 102 % of control

## CCOC(=O)N1Cc2cc3ccccc3nc2C1
dose: 6.25 mg/kg/injection, schedule: Q01DX009 (ip), vehicle: saline with Tween-80
  T/C: 107 % of control
dose: 12.5 mg/kg/injection, schedule: Q01DX009 (ip), vehicle: saline with Tween-80
  T/C: 101 % of control
dose: 25.0 mg/kg/injection, schedule: Q01DX009 (ip), vehicle: saline with Tween-80
  T/C: 101 % of control
[2]
  T/C: 108 % of control

## CC(C)CC(N)C(=O)NC(CCCN=C(N)N)C(=O)NC(CCCN=C(N)N)C(=O)NC(C)C(=O)NC(CO)C(=O)NC(CC(C)C)C(=O)NCC(=O)O (stereo not drawn) (H-LRRASLG-OH; configuration not given here)
dose: 2.25 mg/kg/injection, schedule: Q01DX009 (ip), vehicle: Klucel (hydroxypropylcellulose) (HPC)
  T/C: 103 % of control
[3]
  T/C: 100 % of control
[4]
  T/C: 100 % of control
[5]
  T/C: 106 % of control
dose: 36.0 mg/kg/injection, schedule: Q01DX009 (ip), vehicle: Klucel (hydroxypropylcellulose) (HPC)
  T/C: 106 % of control

## CC1CCC2C(C)C3C(CC4C5CCC6CC(O)CCC6(C)C5CCC43CO)N2C1 (stereo not drawn)
[6]
  T/C: 101 % of control
[7]
  T/C: 108 % of control
dose: 200.0 mg/kg/injection, schedule: Q01DX005 (ip), vehicle: Klucel (hydroxypropylcellulose) (HPC)
  T/C: 113 % of control

## c1ccc(-c2c[n+]3ccccc3n2-c2ccccc2)cc1
dose: 1.56 mg/kg/injection, schedule: Q01DX009 (ip), vehicle: saline
  T/C: 100 % of control
dose: 3.12 mg/kg/injection, schedule: Q01DX009 (ip), vehicle: saline
  T/C: 94 % of control
dose: 6.25 mg/kg/injection, schedule: Q01DX009 (ip), vehicle: saline
  T/C: 101 % of control and 92 % of control

## O=C=Nc1ccc(N=Nc2ccccc2)cc1
dose: 12.5 mg/kg/injection, schedule: Q04DX003 (ip), vehicle: saline with Tween-80
  T/C: 97 % of control
dose: 25.0 mg/kg/injection, schedule: Q04DX003 (ip), vehicle: saline with Tween-80
  T/C: 90 % of control
dose: 50.0 mg/kg/injection, schedule: Q04DX003 (ip), vehicle: saline with Tween-80
  T/C: 90 % of control
dose: 100.0 mg/kg/injection, schedule: Q04DX003 (ip), vehicle: saline with Tween-80
  T/C: 90 % of control and 92 % of control
dose: 150.0 mg/kg/injection, schedule: Q04DX003 (ip), vehicle: saline with Tween-80
  T/C: 92 % of control
dose: 225.0 mg/kg/injection, schedule: Q04DX003 (ip), vehicle: saline with Tween-80
  T/C: 100 % of control
dose: 335.0 mg/kg/injection, schedule: Q04DX003 (ip), vehicle: saline with Tween-80
  T/C: 93 % of control

## CCCn1c(C)nc2c(N)cc(C)cc21
[8]
  T/C: 101 % of control
[6]
  T/C: 94 % of control
[7]
  T/C: 97 % of control

## CCOC(=O)Nc1cc2c(c(N)n1)N=C(c1ccc3ccccc3c1)CN2
dose: 5.0 mg/kg/injection, schedule: Q01DX005 (ip), vehicle: saline with Tween-80
  T/C: 153 % of control
dose: 7.5 mg/kg/injection, schedule: Q01DX005 (ip), vehicle: saline with Tween-80
  T/C: 165 % of control
dose: 10.0 mg/kg/injection, schedule: Q01DX005 (ip), vehicle: saline with Tween-80
  T/C: 166 % of control and 168 % of control

## Nn1c(-c2nn[nH]n2)nnc1-c1nn[nH]n1
[8]
  T/C: 100 % of control
[6]
  T/C: 100 % of control
[7]
  T/C: 95 % of control

## CC1OC(OCC2OC(Oc3c(-c4ccc(O)c(O)c4)oc4cc(O)cc(O)c4c3=O)C(O)C(O)C2O)C(O)C(O)C1O (stereo not drawn)
dose: 6.25 mg/kg/injection, schedule: Q01DX005 (ip), vehicle: saline with Tween-80
  T/C: 95 % of control
dose: 12.5 mg/kg/injection, schedule: Q01DX005 (ip), vehicle: saline with Tween-80
  T/C: 94 % of control
dose: 25.0 mg/kg/injection, schedule: Q01DX005 (ip), vehicle: saline with Tween-80
  T/C: 94 % of control

## Cn1cnc2cc(NCc3ccccc3)c([N+](=O)[O-])cc2c1=O
[9]
  T/C: 100 % of control
dose: 200.0 mg/kg/injection, schedule: Q04DX003 (ip), vehicle: Klucel (hydroxypropylcellulose) (HPC)
  T/C: 106 % of control
dose: 400.0 mg/kg/injection, schedule: Q04DX003 (ip), vehicle: Klucel (hydroxypropylcellulose) (HPC)
  T/C: 101 % of control

## COc1ccc(C(=O)Nc2cccnc2)cc1
[1]
  T/C: 98 % of control
dose: 100.0 mg/kg/injection, schedule: Q01DX009 (ip), vehicle: Klucel (hydroxypropylcellulose) (HPC)
  T/C: 100 % of control
dose: 200.0 mg/kg/injection, schedule: Q01DX009 (ip), vehicle: Klucel (hydroxypropylcellulose) (HPC)
  T/C: 98 % of control

## O=C1C(CCl)(CCl)CCC1(CCl)CCl
dose: 50.0 mg/kg/injection, schedule: Q01DX005 (ip), vehicle: saline with Tween-80
  T/C: 100 % of control
dose: 100.0 mg/kg/injection, schedule: Q01DX005 (ip), vehicle: saline with Tween-80
  T/C: 105 % of control
dose: 200.0 mg/kg/injection, schedule: Q01DX005 (ip), vehicle: saline with Tween-80
  T/C: 94 % of control

## C1=CC2(C=CC13OCCO3)OCCO2
dose: 25.0 mg/kg/injection, schedule: Q04DX003 (ip), vehicle: Klucel (hydroxypropylcellulose) (HPC)
  T/C: 107 % of control
dose: 50.0 mg/kg/injection, schedule: Q04DX003 (ip), vehicle: Klucel (hydroxypropylcellulose) (HPC)
  T/C: 99 % of control
[9]
  T/C: 103 % of control
